Test results: ChEMBL document CHEMBL3627679, “Synthesis and evaluation of C-5 modified 2'-deoxyuridine monophosphates as inhibitors of M. tuberculosis thymidylate synthase” (Bioorg Med Chem, 2015)
Active and inactive are the calls of the source. The calls are words filed in the database; no cut-off is given here.

Legend:
[1] = system: Mycobacterium tuberculosis; experiment: (§1) Inhibition of Mycobacterium tuberculosis ThyX using [5-3H]dUMP as substrate after 10 mins by liquid scintillation counting analysis
[2] = system: Mycobacterium tuberculosis; experiment: Inhibition of Mycobacterium tuberculosis ThyA using dUMP as substrate up to 100 uM measured immediatedly and at 10 mins post mTHF addition by spectrophotometric analysis
[3] = system: Mycobacterium tuberculosis; experiment: Activation of Mycobacterium tuberculosis ThyA using dUMP as substrate up to 100 uM measured immediatedly and at 10 mins post mTHF addition by spectrophotometric analysis
[4] = as §1

| SMILES | inhibition [1] | inhibition [2] | Activity [3] | IC50 [4] [µM] |
| --- | --- | --- | --- | --- |
| CCCCCCCCCCCCOCc1cn([C@H]2C[C@H](O)[C@@H](COP(=O)(O)O)O2)c(=O)[nH]c1=O | inactive | inactive | – | – |
| CCCCCCCCCCc1cn(Cc2cn([C@H]3C[C@H](O)[C@@H](COP(=O)(O)O)O3)c(=O)[nH]c2=O)nn1 | inactive | inactive | – | – |
| CCCCCCCCCCOCc1cn([C@H]2C[C@H](O)[C@@H](COP(=O)(O)O)O2)c(=O)[nH]c1=O | inactive | inactive | – | – |
| CCCCCCCCCCCOCc1cn([C@H]2C[C@H](O)[C@@H](COP(=O)(O)O)O2)c(=O)[nH]c1=O | – | inactive | Active | 8.32 |
| COCCOCCOCCOCc1cn([C@H]2C[C@H](O)[C@@H](COP(=O)(O)O)O2)c(=O)[nH]c1=O | inactive | inactive | – | – |
| CCCCCCCCCCCCOCc1cn([C@H]2C[C@H](N=[N+]=[N-])[C@@H](COP(=O)(O)O)O2)c(=O)[nH]c1=O | inactive | inactive | – | – |
| CCCCCCCCc1cn(Cc2cn([C@H]3C[C@H](O)[C@@H](COP(=O)(O)O)O3)c(=O)[nH]c2=O)nn1 | inactive | inactive | – | – |
